From US8759300B2, “Polypeptides and methods of use” (The Research Foundation for the State University of New York, priority 2007, dated 2014)
Entries after “also recorded” stand apart in the source; their conditions may differ. No end group written: not given here.

Legend:
PDGF-BB [1] = target: T1, PDGF-BB (Homo sapiens, UniProt P01127); experiment: Equilibrium binding of 125I-PDGF-BB to FN, FN domains and peptides; conditions: for PDGF-BB binding, in words: equilibrium binding and/or plasmon resonance; for Kd: equilibrium binding
Procedure: (§1) 20 μl of 50% v/v peptide-agarose beads are incubated with 125I-PDGF in 0.1 ml of binding buffer (DMEM+2% BSA) at room temperature for 2 hours with rotation. Beads are washed 6 times with DMEM. Bound PDGF-BB are released by the addition of 100 μl of 1M NaOH. The radioactivity bound to FN-beads are quantified in a γ-counter. Nonspecific binding are established from ^125I-PDGF binding to nonconjugated beads, then specific binding derived by subtraction of nonspecific binding from total binding. Binding constants (KD) and Bmax are determined from nonlinear regression of specific binding curves using Prism 4 from GraphPad Software, San Diego, Calif. “Scatchard plots” are derived from the KD and Bmax obtained with non linear regression analysis.

[2] = tested on: GFs (TGF-β1, PDGF-BB, VEGF, FGF-2); experiment: Binding of growth factors to FN domains, GFs reported together
Procedure: as §1
(§2) In the Biacore2000 system, binding constants from kinetic data are determined by passing varying concentrations of FN peptides (analytes) over chip surfaces which are coupled with PDGF-BB (ligand), respectively. All kinetic experiments are carried out at 20° C. at a flow rate of 20 μl/min. For mass transport experiments, each analyte is injected at a fixed concentration and run at flow rates ranging from 5 to 75 μl/min. All analytes are injected over PDGF-BB ligand surfaces as well as over a control surface for 120 s, followed by 300 s of dissociation in running buffer. Regeneration of the sensor chip for subsequent injections is accomplished by pulse of 0.1% SDS. Mass transport experiments have detected little difference in response at different flow rates thus validating data from kinetic experiments. Sensorgrams are prepared and globally fitted using nonlinear least-squares analysis and numerical integration of the differential rate equations with the Biacore Bioevaluation software. Each sensogram generated using a control surface is substracted from the corresponding experimental sensorgrams, and the resulting curves are transformed to concentration units using the molecular mass of the injected species, the equivalence of 1000 resonance units (RU) per 1 ng/mm^2, and a matrix thickness of 100 nm. Each data set, which consists of a series of sensorgrams from injections of different concentration of analyte over the same surface, are analyzed using kinetic models from Biaevaluation software.

FN-null cells [3] = experiment: FN-null cell survival on surfaces coated with FN domains; format: cell-based, mouse; conditions: for FN-null cell survival / proliferation, summary statement: cells plated on named FN construct, or on FNIII8-11 ± named domain; for FN-null cell survival with PDGF at 3 days: surface precoated with 0.15 μM GST-tagged FNIII8-11 ± named FN domain, or named FN construct, PDGF-BB added 1 day after plating; for FN-null cell survival / proliferation: FNIII8-11 ± named FN domain, or named FN construct, PDGF-BB added 2 hrs after plating
Procedure: To further investigate the response of cells to PDGF-BB bound to FN domains, we investigated the survival response of mouse fibroblasts null for FN (FN−/−), or “FN-null”. First we determined the response of FN-null cells to PDGF-BB in the absence of serum or other sources of exogenous FN. […] Next, FN-null cells were plated on tissue culture plastic surfaces precoated with 0.15 μM GST-tagged FNIII8-11±other FN domains known to have PDGF-BB binding activity and then PDGF-BB added 1 day later. […] Importantly, differential response of FN-null cells, plated on different FN domains, to PDGF-BB was not secondary to differences in attachment as judged by cell counts two hours after plating. The FNIII8-11 central cell binding domain was present in all circumstances.

bFGF (FGF-2) = bFGF (FGF-2) (Homo sapiens, UniProt P09038); experiment: Equilibrium binding of bFGF (FGF-2) to FN and FN domains
Procedure: [The source words this procedure for another target and reports this target under the same test.] as §1

TGF-β1 = TGF-β1 (Homo sapiens, UniProt P01137); experiment: Equilibrium binding of TGF-β1 to FN, FN domains and peptides; conditions: for TGF-β1 binding, in words: equilibrium and/or kinetic binding
Procedure: [The source words this procedure for another target and reports this target under the same test.] as §1

VEGF = target: T2, VEGF (Homo sapiens, UniProt P15692); experiment: Surface plasmon resonance, VEGF; format: binding
T2 sequence (P15692 27-191 isoform P15692-4): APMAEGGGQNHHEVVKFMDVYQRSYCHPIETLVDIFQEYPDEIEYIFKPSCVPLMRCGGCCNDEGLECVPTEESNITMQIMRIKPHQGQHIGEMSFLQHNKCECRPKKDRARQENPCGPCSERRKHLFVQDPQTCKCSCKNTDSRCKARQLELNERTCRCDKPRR

FGF-1 = FGF-1 (Homo sapiens, UniProt P05230); experiment: Binding of FGF-1 to FN, FN domains and peptides
EGF = EGF (Homo sapiens, UniProt P01133); experiment: Binding of EGF to FN, FN domains and peptides
TGF-α = TGF-α (Homo sapiens, UniProt P01135); experiment: Binding of TGF-α to FN, FN domains and peptides
FN-null cells [4] = experiment: FN-null cell assay, peptides added directly to medium on FNIII8-11; format: cell-based, mouse
Procedure: FIG. 6. FN-null fibroblast response to soluble, unconjugated P5 (SEQ ID NO:37). FN-null cells were cultured at 4,000 cells/well in 96 well plates precoated with 0.125 mM of FNIII8-11 in DMEM for 4 hrs, and then further incubated in DMEM+2% BSA with or without the indicated concentrations of Peptide 5 at 37° C. for 3 days. Cells were counted in three 10× fields in each of 4 wells (mean±SD, n−12).
Scrambled variants of peptides 1 and 5 had no activity in these assays.
Variants of peptide 5 derived from fibronectin were generated by removing one amino acid at a time from the N-terminus or C-terminus of Peptide 5 (Table 2). These peptides (P12-P24) were added directly to medium with or without PDGF-BB.

PDGF-BB [5] = target: T1, PDGF-BB; experiment: Surface plasmon resonance (Biacore), PDGF-BB; format: binding; conditions: plasmon resonance, kinetic binding
Procedure: as §2, with “Each sensogram generated using a control surface is substracted from the corresponding experimental sensorgrams, and the resulting curves are transformed to concentration units using the molecular mass of the injected species, the equivalence of 1000 resonance units (RU) per 1 ng/mm^2, and a matrix thickness of 100 nm.” left out

[6] = target: T3, PDGF-BB binding to FNIII1, FNIII12-14 and IIICS (Homo sapiens, UniProt P01127); experiment: Inhibition by peptides of PDGF-BB binding to FN domains; conditions: all three FN domains
T3 construct: made in house; host or cells: E. coli BL21DE3LysS (FN domains only)
From the text: To further localize PDGF-BB binding within FNIIII, we acquired a peptide from the central 76 amino acids (aa) of FNIII1 (FN630-704) (FIG. 4), which has anti-angiogenic properties and promotes FN polymerization. […] Next, we looked for sequence homologies within the two halves of the peptide and discovered the sequence pattern noted above ([QN]-X(1,2)-[ST]-X(0,1)-[IG]-[QS]-[KRQ]-[YTM]-[IG]-X(4,5)-X(0,1)-[KR]-X(1,2)-X(1,2)-[RT]-X(1,2)-[KQTS]-X(2)-T) (SEQ ID NO:30) (see peptides 1-4). […] These findings may explain similar PDGF-BB binding among FN heparin-binding domains, FNIII12-V15, FNIII12-15, FNIII12-14, FNIII12-13, and IIICS. […] Next, we determined if PDGF-BB-binding peptides from FNIII1 could inhibit PDGF-BB binding to FNIII1, FNIII12-14 and IIICS. For initial experiments we selected peptide 1 and peptide 2. For control, we used scrambled peptide 1.

[7] = target: T4, bFGF binding to recombinant FN domain (Homo sapiens, UniProt P09038); experiment: Inhibition by peptide of bFGF binding to recombinant FN domains
T4 construct: made in house; host or cells: E. coli BL21DE3LysS (FN domains only)

[8] = target: T5, TGF-β1 binding to recombinant FN domain (Homo sapiens, UniProt P01137); experiment: Inhibition by peptide of TGF-β1 binding to recombinant FN domains
T5 construct: made in house; host or cells: E. coli BL21DE3LysS (FN domains only)

[9] = peptide added directly to media with or without PDGF-BB

T1 sequence (P01127 82-190 limits assumed): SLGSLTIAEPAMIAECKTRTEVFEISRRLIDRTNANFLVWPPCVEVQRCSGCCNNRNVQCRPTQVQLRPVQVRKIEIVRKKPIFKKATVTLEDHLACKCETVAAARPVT
TGF-β1, sequence (P01137 279-390 limits assumed): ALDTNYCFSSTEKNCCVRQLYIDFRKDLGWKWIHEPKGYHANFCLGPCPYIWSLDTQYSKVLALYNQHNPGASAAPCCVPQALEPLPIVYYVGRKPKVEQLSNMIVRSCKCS
T3 sequence (P01127 82-190 limits assumed): as the sequence (P01127 82-190 limits assumed) above
bFGF (FGF-2), sequence (P09038 143-288): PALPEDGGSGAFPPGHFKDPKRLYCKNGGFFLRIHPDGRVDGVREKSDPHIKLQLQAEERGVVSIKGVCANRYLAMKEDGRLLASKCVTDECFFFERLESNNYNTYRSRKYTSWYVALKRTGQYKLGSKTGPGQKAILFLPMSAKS
T4 sequence (P09038 134-288 limits assumed): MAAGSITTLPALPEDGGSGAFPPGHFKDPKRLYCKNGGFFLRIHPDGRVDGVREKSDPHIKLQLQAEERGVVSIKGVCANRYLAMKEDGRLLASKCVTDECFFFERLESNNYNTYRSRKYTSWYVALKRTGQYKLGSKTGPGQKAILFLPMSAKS
TGF-α, sequence (P01135 40-89, species assumed): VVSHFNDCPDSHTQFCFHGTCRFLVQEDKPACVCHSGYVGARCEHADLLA
EGF, sequence (P01133 971-1023 limits assumed, species assumed): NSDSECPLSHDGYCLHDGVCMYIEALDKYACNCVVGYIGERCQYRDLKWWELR
FGF-1, sequence (P05230 whole entry, species assumed, the tested form may be a part): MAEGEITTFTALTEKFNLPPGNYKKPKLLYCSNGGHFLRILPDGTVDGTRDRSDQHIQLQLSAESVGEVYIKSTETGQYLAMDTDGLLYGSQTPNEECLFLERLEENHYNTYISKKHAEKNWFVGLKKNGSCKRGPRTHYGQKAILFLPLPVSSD
T5 sequence (P01137 279-390 limits assumed): as the sequence (P01137 279-390 limits assumed) above

FNIII8-11: classic cell-binding domain of FN containing RGD
PDGF-BB binding, in words (PDGF-BB [1]): did not | Binding of the GFs tested, in words [2]: None of the GFs detectably bound; also recorded: In no case did any GF bind | FN-null cell survival / proliferation, summary statement (FN-null cells [3]): failed to survive even in the presence of PDGF-BB; also recorded: did not support cell survival | FN-null cell survival with PDGF at 3 days (FN-null cells [3]): failed to survive

FNIII1-11: recombinant FN domain; FNIII1 PDGF-binding domain contiguous with FNIII8-11 cell-binding domain
PDGF-BB binding, in words (PDGF-BB [1]): bound | bFGF (FGF-2) binding, in words (bFGF (FGF-2); equilibrium and/or kinetic binding): did not | TGF-β1 binding, in words (TGF-β1): bound | FN-null cell survival in the absence of PDGF-BB (FN-null cells [3]): survived | FN-null cell survival / proliferation (FN-null cells [3]): robust proliferation | FN-null cell survival / proliferation, summary statement (FN-null cells [3]): survived in the absence of PDGF-BB and proliferated in its presence | FN-null cell survival with PDGF at 3 days (FN-null cells [3]): best survival response | VEGF binding, in words (VEGF): did not

FN630-667: half of the 76 aa FNIII1 peptide FN630-704
PDGF-BB binding, in words (PDGF-BB [1]): demonstrated PDGF-BB binding

intact FN: intact human plasma fibronectin (SEQ ID NO:1)
FGF-1 binding, in words (FGF-1): did not | EGF binding, in words (EGF): did not | Kd (PDGF-BB [1]): 49 nM | TGF-α binding, in words (TGF-α): did not | Kd (bFGF (FGF-2); equilibrium binding, intact FN, read-out: KD, FGF-2 (bFGF) binding): 44 nM | Kd (TGF-β1; equilibrium binding): 53 nM | FN-null cell survival / proliferation (FN-null cells [3]): robust proliferation | FN-null cell survival / proliferation, summary statement (FN-null cells [3]): survived in the absence of PDGF-BB and proliferated in its presence

PSHISKYILRWRPK [P12]
FN null cell survival and proliferation (FN-null cells [4]; [9]): smallest peptide capable of supporting FN-null cell survival or proliferation

FNIII2: recombinant FN domain, second type III repeat
Binding of the GFs tested, in words [2]: all four GFs bound

FNIII1-2: recombinant FN domain, first and second type III repeat
Kd (PDGF-BB [1]): 37 nM | Binding of the GFs tested, in words [2]: all four GFs bound | FN-null cell survival / proliferation (FN-null cells [3]): enhance survival | Kd (PDGF-BB [5]): 9.1 nM

QPSHISKY
TGF-β1 binding, in words (TGF-β1): minimal binding activity

QLISIQQYGHQEVTRFDFTTTSTST [peptide 2]
Inhibition of PDGF-BB binding to FNIII1, FNIII12-14 and IIICS [6]: neither peptide 2, nor the scramble variant of peptide 1 (FN634-658s), demonstrated inhibition

QPSHISKYILRWRPKNSVGRWKEAT [peptide 1]
FN null cell survival and proliferation (FN-null cells [4]; [9]): supported FN null cell survival and proliferation | Inhibition of bFGF binding to any recombinant FN domain [7]: completely inhibited | Inhibition of PDGF-BB binding to FNIII1, FNIII12-14 and IIICS [6]: marked inhibition | Inhibition of TGF-β1 binding to any recombinant FN domain [8]: completely inhibited

anastellin: 76-aa peptide within FNIII1; anti-angiogenic, promotes FN polymerization [reference compound]
PDGF-BB binding, in words (PDGF-BB [1]): demonstrated PDGF-BB binding | Binding of the GFs tested, in words [2]: all but VEGF bound

QPSVGQQMIFEEHGFRRTTPPTTAT [peptide 4]
Kd (TGF-β1; equilibrium binding): 100 nM

FN70: 70 kDa amino terminus of FN, which includes fibrin and gelatin binding domains
PDGF-BB binding, in words (PDGF-BB [1]): did not | Binding of the GFs tested, in words [2]: None of the GFs detectably bound; also recorded: In no case did any GF bind

FNIII8-V15: FN functional domain containing FNIII8-11 plus a GF-binding domain
FN-null cell survival / proliferation (FN-null cells [3]): robust proliferation | FN-null cell survival / proliferation, summary statement (FN-null cells [3]): survived in the absence of PDGF-BB and proliferated in its presence

PSLAKKQRFRHRNR
FN null cell survival and proliferation (FN-null cells [4]; in the presence of PDGF-BB): supported FN null cell survival and proliferation

FNIII1: recombinant FN domain, first type III repeat
Kd (PDGF-BB [1]): 32 nM | Binding of the GFs tested, in words [2]: all four GFs bound | Kd (TGF-β1; method not restated (equilibrium and kinetic binding performed)): 6.2 nM | FN-null cell survival with PDGF at 3 days (FN-null cells [3]): increased survival | Kd (PDGF-BB [5]): 370 nM

FN668-704: half of the 76 aa FNIII1 peptide FN630-704
PDGF-BB binding, in words (PDGF-BB [1]): demonstrated PDGF-BB binding
